For one experiment, the target named is T1, α-chymotrypsin (Bos taurus, UniProt P00766).
T1 construct: docking model 1YPH agrees
The experiment can be described thus: Trp fluorescence quenching, double-log plot. Particulars: 10 mM PBS, 1 mg/mL enzyme, excitation 295 nm. It counts as binding. An excerpt:
Trp fluorescence quenching, double-log plot on α-chymotrypsin

Another experiment deals with T2, lysozyme (Gallus gallus, UniProt P00698).
T2 construct: gene LYZ; docking model 6LYZ and six Trp agree
T2 sequence (P00698 19-147): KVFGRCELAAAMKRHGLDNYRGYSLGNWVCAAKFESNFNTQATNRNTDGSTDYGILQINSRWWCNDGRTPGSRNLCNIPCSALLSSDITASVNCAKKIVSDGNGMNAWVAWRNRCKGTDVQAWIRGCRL
The experiment can be described thus: Trp fluorescence quenching, double-log plot. In kind it is binding. Particulars: 10 mM PBS, 1 mg/mL enzyme, excitation 295 nm. An excerpt: Trp fluorescence quenching, double-log plot on lysozyme

`CC(C)[C@H](N)C(=O)O` [[Ch][Val]]: the “Kb/M^-1 a” value amounted to 280.6 ± 30.05 M⁻¹ at α-chymotrypsin (n = 1.40, ion-pair salt titrated as ligand, ligand perturbs the tertiary structure) and 73.84 ± 10.34 M⁻¹ at lysozyme (n = 0.99, ion-pair salt titrated as ligand, ligand unfolds the tertiary structure).

Consider `C[N+](C)(C)CCO.O=C([O-])CCC(=O)O` [[Ch][Suc]], for which the “Kb/M^-1 a” value at α-chymotrypsin (n = 1.19, ion-pair salt titrated as ligand) was 30.95 ± 5.69 M⁻¹; on lysozyme (n = 1.15, ion-pair salt titrated as ligand), 31.64 ± 6.01 M⁻¹.

For the origin of these results see publication PMC11990322, “Cholinium-Based Ionic Liquids Modulate Protein Stability: A Comparative Study of Enzymes and Albumins” (Molecules, 2025).
